Test results from patent US10618900B2, “5-aromatic alkynyl substituted benzamide compound and preparation method, pharmaceutical composition, and use thereof” (SHANGHAI INSTITUTE OF MATERIA MEDICA, CHINESE ACADEMY OF …, priority 2015, dated 2020).
Like-named read-outs stand apart in the source and are kept apart here.

What was measured:
mice = assay: Mouse tail suspension experiment; type: in vivo; settings: 20 mg/kg dose, within 6 min, FIG. 1
Excerpt: Experimental principle: Tail Suspension Test (TST) is a classic method which can quickly evaluate the efficacy of antidepressant drugs, excitement drugs, and sedative drugs. The principle is to use the status that the mouse give up struggle and enter the unique depression status after the tail was suspended and the attempt to escape was failed.
Experimental method: 20-24 g male mice were selected and the site at 2 cm part from the end of the tail was attached to a horizontal stick, so that the animal entered inverted state, and it's head was about 5 cm from the table, and boards were hung on both sides to separate the animal's sight. The immobility time of the administration group and the control group within 6 min were compared.

[1] = Determination of brain tissue content in rats; type: in vivo; settings: rat
Description: Six healthy rats weighing 150-200 g were randomly divided into […] (n=3). The rats were given 10 mL/kg by gavage and intravenous injection, and the dose of gavage was 20 mg/kg, and the dose of intravenous administration was 10 mg/kg. The drug was formulated in DMSO/Tween 80/saline (5:5:90, v/v/v). The rats were fasted for 12 h before testing, and drinked water ad libitum. 2 h after administration, all rats ate together. […]
A physiological saline solution was added (1:10, weight:volume) and the mixture was sufficiently homogenized to form a homogenate. 100 uL homogenate was taken, and 300 uL dichloromethane:methanol (3:2) solution was added, mixed uniformly through vortex oscillation and centrifugated at 14000 rpm for 10 min. The clear liquor was taken. The sample was dried with nitrogen and stored in the 4° C. refrigerator.

mGluR1 = mGluR1 (Homo sapiens (Human), UniProt Q13255); assay: mGluR5/1 selectivity test, HEK293/mGluR1 cell line, Fluo-8 calcium; type: cell-based
Sequence of mGluR1 (Q13255 19-1194): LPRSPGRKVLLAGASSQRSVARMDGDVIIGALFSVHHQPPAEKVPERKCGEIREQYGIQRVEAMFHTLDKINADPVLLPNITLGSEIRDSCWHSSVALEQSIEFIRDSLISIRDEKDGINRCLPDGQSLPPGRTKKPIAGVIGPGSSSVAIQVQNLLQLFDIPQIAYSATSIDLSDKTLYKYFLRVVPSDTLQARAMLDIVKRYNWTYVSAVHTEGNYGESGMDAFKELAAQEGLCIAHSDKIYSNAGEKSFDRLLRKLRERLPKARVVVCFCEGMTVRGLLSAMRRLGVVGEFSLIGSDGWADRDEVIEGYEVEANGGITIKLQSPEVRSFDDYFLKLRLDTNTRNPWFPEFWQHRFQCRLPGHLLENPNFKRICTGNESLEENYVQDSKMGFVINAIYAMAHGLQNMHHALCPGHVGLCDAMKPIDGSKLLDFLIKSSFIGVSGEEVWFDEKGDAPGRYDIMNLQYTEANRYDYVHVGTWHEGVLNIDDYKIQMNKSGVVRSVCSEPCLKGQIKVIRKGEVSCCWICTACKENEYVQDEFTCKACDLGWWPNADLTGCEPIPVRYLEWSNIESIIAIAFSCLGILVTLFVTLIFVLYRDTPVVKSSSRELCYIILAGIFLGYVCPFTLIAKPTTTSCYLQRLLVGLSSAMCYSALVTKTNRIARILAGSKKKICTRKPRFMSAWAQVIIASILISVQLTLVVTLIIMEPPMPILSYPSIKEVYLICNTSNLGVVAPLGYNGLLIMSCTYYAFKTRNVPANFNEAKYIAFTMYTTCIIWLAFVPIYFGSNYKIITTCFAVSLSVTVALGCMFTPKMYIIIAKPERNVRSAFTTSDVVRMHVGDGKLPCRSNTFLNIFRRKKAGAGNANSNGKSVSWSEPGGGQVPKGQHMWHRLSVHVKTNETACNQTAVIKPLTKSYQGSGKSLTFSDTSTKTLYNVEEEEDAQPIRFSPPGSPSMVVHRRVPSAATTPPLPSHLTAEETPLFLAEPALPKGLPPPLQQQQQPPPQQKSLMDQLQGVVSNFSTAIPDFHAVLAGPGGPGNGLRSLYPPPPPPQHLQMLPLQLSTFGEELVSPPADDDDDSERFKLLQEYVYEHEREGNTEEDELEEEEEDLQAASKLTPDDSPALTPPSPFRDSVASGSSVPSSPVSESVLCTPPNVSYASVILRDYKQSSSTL
Excerpt: Experimental material: HEK293/mGluR5 cell line, HEK293/mGluR1 cell line, Fluo-8 calcium ion fluorescent dye, positive control JNJ16259685

mGluR5 = mGluR5 (Homo sapiens (Human), UniProt P41594); assay: In vitro activity test for mGluR5, HDB Fluo-8 calcium fluorescence detection (FLIPR); type: cell-based; settings: HEK293/mGluR5 cell line
Sequence of mGluR5 (P41594 21-1212): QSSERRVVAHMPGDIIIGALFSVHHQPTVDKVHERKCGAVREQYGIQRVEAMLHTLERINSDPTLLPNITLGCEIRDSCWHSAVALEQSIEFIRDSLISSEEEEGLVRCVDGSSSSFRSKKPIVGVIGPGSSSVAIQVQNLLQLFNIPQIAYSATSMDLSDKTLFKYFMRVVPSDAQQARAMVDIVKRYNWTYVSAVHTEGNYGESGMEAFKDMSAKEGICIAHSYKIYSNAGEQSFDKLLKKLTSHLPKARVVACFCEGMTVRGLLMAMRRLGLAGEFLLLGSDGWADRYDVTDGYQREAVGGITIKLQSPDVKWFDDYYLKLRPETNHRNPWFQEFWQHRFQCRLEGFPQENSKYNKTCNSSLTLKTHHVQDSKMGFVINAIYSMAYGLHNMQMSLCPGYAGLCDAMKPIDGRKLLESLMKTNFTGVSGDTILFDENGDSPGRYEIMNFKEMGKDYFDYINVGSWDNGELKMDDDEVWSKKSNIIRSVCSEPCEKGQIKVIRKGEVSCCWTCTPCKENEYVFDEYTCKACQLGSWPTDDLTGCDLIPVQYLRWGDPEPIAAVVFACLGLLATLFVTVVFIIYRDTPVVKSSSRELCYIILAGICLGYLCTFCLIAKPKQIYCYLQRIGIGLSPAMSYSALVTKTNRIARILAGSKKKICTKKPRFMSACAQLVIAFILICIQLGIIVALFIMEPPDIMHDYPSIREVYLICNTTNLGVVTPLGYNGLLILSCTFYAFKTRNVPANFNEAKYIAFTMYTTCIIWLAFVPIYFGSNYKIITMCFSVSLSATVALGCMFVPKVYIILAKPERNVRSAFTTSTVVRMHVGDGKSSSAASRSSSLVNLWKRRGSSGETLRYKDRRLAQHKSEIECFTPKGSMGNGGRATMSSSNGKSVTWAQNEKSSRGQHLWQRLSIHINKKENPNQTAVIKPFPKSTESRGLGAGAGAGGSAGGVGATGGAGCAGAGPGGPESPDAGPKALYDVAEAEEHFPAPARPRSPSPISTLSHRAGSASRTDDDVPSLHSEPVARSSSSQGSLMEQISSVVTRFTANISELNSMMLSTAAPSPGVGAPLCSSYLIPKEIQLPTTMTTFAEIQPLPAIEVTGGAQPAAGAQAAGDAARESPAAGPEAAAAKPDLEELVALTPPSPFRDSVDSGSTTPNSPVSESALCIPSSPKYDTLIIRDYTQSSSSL
Excerpt: Experimental instrument: FLIPR Tetra real-time fluorescence imaging analysis system
Experimental method: HDB Fluo-8 calcium fluorescence detection method
Experimental principle: HDB Fluo-8 calcium ion fluorescence detection method is a fast, simple and reliable fluorescence detection method of intracellular calcium concentration changes. The Fluo 8-AM fluorescent dye is an […] derivative of Fluo 8 which can easily penetrate the cell membrane into the cell by culture. The fluorescent dye into the cell will be hydrolyzed by intracellular esterase, the resulting Fluo 8 cannot easily pass through the lipid bimolecular membrane as a polar molecule, and will retain in the cell, and combine with calcium (Ca^2+) to produce fluoresces.
Cells expressing GPCR receptor protein (mGluR5) were first calibrated with a calcium ion sensitive fluorescent probe and then stimulated with the compound. After stimulation, the activation of the receptor lead to the calcium ion mobilization, and the fluorescent probe captures the calcium ion to induce the fluorescence signal. The signal can be read by a fluorescent plate reader. The fluorescent plate reader contains a sampling head for compound addition, thus enabling the change of the fluorescence value of the compound be read in real time. […]

[2] = Pharmacokinetic experiment in rats; type: in vivo; settings: rat; for bioavailability: gavage 20 mg/kg vs intravenous 10 mg/kg, read-out: F (absolute bioavailability)
Description: Six healthy rats weighing 150-200 g were randomly divided into […] (n=3). The rats were given 10 mL/kg ZD043 by gavage and intravenous injection. The dose of gavage was 20 mg/kg, and the dose of intravenous administration was 10 mg/kg. The drug was formulated in DMSO/Tween 80/saline (5:5:90, v/v/v). The rats were fasted for 12 h before testing, and drinked water ad libitum. 2 h after administration, all rats ate together.
Gavage administration: 0, 0.25, 0.5, 1.0, 2.0, 4.0, 6.0, 8.0 and 24 h after administration;
Intravenous administration: 0, 5 min, 0.25, 0.5, 1.0, 2.0, 4.0, 6.0, 8.0 and 24 h after administration;
0.3 mL of blood was collected at the above time points from the rat eye vein venous plexus, placed in heparinized test tube and centrifugated at 11000 rpm for 5 min. Plasma was separated and the sample was frozed in −20° C. refrigerator.

ICR mice = assay: Mouse forced swimming experiment; type: in vivo; settings: later 4 min of 6 min
Description: Experimental principle: The principle of Mouse Forced Swimming Test (FST) is to allow the mouse to swim in a limited space from which it can not escape, thus inducing animal to non-movement state which reflects the animal's desperate behavior.
Experimental animals: ICR mice, 20-28 g, both male and female
Sample treatment: The test compounds were ground with 1% CMC (sodium carboxymethyl cellulose) aqueous solution to prepare a homogeneous solution. In vivo dose was 5 mg/kg, 10 mg/kg and 20 mg/kg, the compound was oral administered at 0.1 ml/10 g volume/body weight. Positive control drugs (amitriptyline and fluoxetine) were dissolved with 0.9% saline, in vivo dose was 10 mg/kg, administered by intraperitoneal injection at 0.1 ml/10 g volume/body weight. (Note: the mice were fasted for 8 h and drinked water ad libitum before the compound was given.)
Experimental Methods: mice were grouped randomly. […] On the second day of the test, the mice were orally administered the compound. After 1 hour (0.5 hours after intraperitoneal injection), the mice were then put in water to record the immobility time in the later 4 min of 6 min.

With `Cc1nc(C#Cc2ccc(F)c(C(=O)Nc3cccnc3)c2)cs1` [ZD043] the “immobility time in the mouse tail suspension test” value (mice) was “significantly reduced”, the concentration at 0.25 h ([1]; cerebrospinal fluid, sampling time 0.25 h, read-out: Cerebrospinal fluid) was 25.5 ng/mL and the concentration at 1 h ([1]; cerebrospinal fluid, sampling time 1 h, read-out: Cerebrospinal fluid) was 21.3 ng/mL. For the same compound, the concentration at 3 h ([1]; cerebrospinal fluid, sampling time 3 h, read-out: Cerebrospinal fluid) was 7.99 ng/mL, the concentration at 0.25 h ([1]; plasma, sampling time 0.25 h, read-out: Plasma) was 1240 ng/mL and the concentration at 1 h ([1]; plasma, sampling time 1 h, read-out: Plasma) was 1130 ng/mL. For the same compound, the concentration at 3 h ([1]; plasma, sampling time 3 h, read-out: Plasma) was 358 ng/mL, the “drug concentration ratio in the brain and plasma” value ([1]; after administration) was 1/2 and the B/P ([1]; sampling time 0.25 h) was 1/2. For the same compound, the concentration at 0.25 h ([1]; sampling time 0.25 h, read-out: brain) was 589 ng/g, the B/P ([1]; sampling time 1 h) was 1/2 and the Csf/P ([1]; sampling time 1 h) was 1/53. For the same compound, the concentration at 1 h ([1]; sampling time 1 h, read-out: brain) was 559 ng/g, the Csf/P ([1]; sampling time 3 h) was 1/45 and the concentration at 3 h ([1]; sampling time 3 h, read-out: brain) was 164 ng/g. The IC50 (mGluR1; HEK293/mGluR1 cell line) was greater than 100000 nM, the mGluR5/mGluR1 (mGluR1; selectivity ratio of IC50 values) was greater than 17854 and the IC50 (mGluR5) was 5.6 nM. For the same compound, the AUC(0-t) ([2]; plasma, intravenous, vein 10 mg/kg, read-out: AUC0-t) was 66400 ng·h/mL, the AUC(0-inf) ([2]; plasma, iv, vein 10 mg/kg) was 66400 ng·h/mL and the Cmax ([2]; plasma, iv, vein 10 mg/kg) was 75400 ng/mL. The MRT ([2]; plasma, iv, vein 10 mg/kg) was 37.2 min, the Tmax ([2]; plasma, iv, vein 10 mg/kg) was 4.98 min and the AUC(0-t) ([2]; plasma, iv, vein 10 mg/kg, read-out: AUC0-t) was 66400 ng·h/mL. It also gave a bioavailability ([2]; plasma, oral) of 31.6%, an AUC(0-inf) ([2]; plasma, po, gavage 20 mg/kg) of 10500 ng·h/mL and a Cmax ([2]; plasma, po, gavage 20 mg/kg) of 7120 ng/mL. The MRT ([2]; plasma, po, gavage 20 mg/kg) was 63.6 min, the Tmax ([2]; plasma, po, gavage 20 mg/kg) was 15 min and the bioavailability ([2]; plasma, po) was 31.6%. It also gave an AUC(0-t) ([2]; plasma, po, gavage 20 mg/kg, read-out: AUC0-t) of 10500 ng·h/mL, an AUC(0-t) ([2]; gavage 20 mg/kg) of 10491.2 ng·h/mL and a t1/2 ([2]; gavage 20 mg/kg) of 78 min. The half-life ([2]; plasma, iv, 10 mg/kg, vein 10 mg/kg) was 25.8 min, the half-life ([2]; plasma, po, 20 mg/kg, gavage 20 mg/kg) was 78.1 min and the “immobility time (%) Mean ± SEM” value (ICR mice; 5 mg/kg oral) was “reduced”. For the same compound, the “immobility time (%) Mean ± SEM” value (ICR mice; 5 mg/kg oral, listed as D043) was 74.97 ± 18.79%, the “immobility time (%) Mean ± SEM” value (ICR mice; 10 mg/kg oral) was “reduced” and the “immobility time (%) Mean ± SEM” value (ICR mice; 10 mg/kg oral, listed as D043) was 66.01 ± 21.08%. For the same compound, the “immobility time (%) Mean ± SEM” value (ICR mice; 20 mg/kg oral) was “reduced” and the “immobility time (%) Mean ± SEM” value (ICR mice; 20 mg/kg oral, listed as D043) was 46.50 ± 13.03%.
